Results from ChEMBL document CHEMBL1201862, “PubChem BioAssay data set” (2004).
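Method: 48-hour compound exposure of cells in 96-well plates, five concentrations, linear interpolation of endpoints. GI50: concentration for 50% inhibition of growth.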 The source made the active and inactive calls. No stated cut-off is given here; in the data, active = GI50 up to about 1.1 µM and inactive = higher.

How the values were obtained:
Experiment in all cases: growth of human tumour cells (NCI), 48 h
[1] = test system: 786-0
[2] = test system: A498
[3] = test system: A549
[4] = test system: ACHN
[5] = test system: BT-549
[6] = test system: CAKI-1
[7] = test system: CCRF-CEM
[8] = test system: COLO 205
[9] = test system: DU-145
[10] = test system: EKVX
[11] = test system: HCT-116
[12] = test system: HCT-15
[13] = test system: HL-60
[14] = test system: HOP-62
[15] = test system: HOP-92
[16] = test system: HT-29
[17] = test system: Hs-578T
[18] = test system: IGROV-1
[19] = test system: K562
[20] = test system: KM12
[21] = test system: LOX IMVI
[22] = test system: M14
[23] = test system: MCF7
[24] = test system: MDA-MB-231
[25] = test system: MDA-MB-435
[26] = test system: MDA-N
[27] = test system: MOLT-4
[28] = test system: Malme-3M
[29] = test system: NCI-H226
[30] = test system: NCI-H23
[31] = test system: NCI-H460
[32] = test system: NCI-H522
[33] = test system: OVCAR-3
[34] = test system: OVCAR-4
[35] = test system: OVCAR-5
[36] = test system: OVCAR-8
[37] = test system: PC-3
[38] = test system: RPMI-8226
[39] = test system: RXF 393
[40] = test system: SF-268
[41] = test system: SF-295
[42] = test system: SF-539
[43] = test system: SK-MEL-28
[44] = test system: SK-MEL-2
[45] = test system: SK-MEL-5
[46] = test system: SK-OV-3
[47] = test system: SN12C
[48] = test system: SNB-19
[49] = test system: SR
[50] = test system: SW-620
[51] = test system: TK-10
[52] = test system: U-251
[53] = test system: UACC-257
[54] = test system: HCC 2998
[55] = test system: NCI/ADR-RES
[56] = test system: SNB-75
[57] = test system: T47D
[58] = test system: UACC-62
[59] = test system: UO-31

## CC(=O)NNC(=O)C1CCCCN1 (stereo not given)
[1]
  GI50: > 100 µM (inactive)
[2]
  GI50: > 100 µM (inactive)
[3]
  GI50: > 100 µM (inactive)
[4]
  GI50: > 100 µM (inactive)
[5]
  GI50: > 100 µM (inactive)
[6]
  GI50: > 100 µM (inactive)
[7]
  GI50: > 100 µM (inactive)
[8]
  GI50: > 100 µM (inactive)
[9]
  GI50: > 100 µM (inactive)
[10]
  GI50: > 100 µM (inactive)
[11]
  GI50: > 100 µM (inactive)
[12]
  GI50: > 100 µM
[13]
  GI50: > 100 µM (inactive)
[14]
  GI50: > 100 µM (inactive)
[15]
  GI50: > 100 µM (inactive)
[16]
  GI50: > 100 µM (inactive)
[17]
  GI50: > 100 µM (inactive)
[18]
  GI50: > 100 µM (inactive)
[19]
  GI50: > 100 µM (inactive)
[20]
  GI50: > 100 µM (inactive)
[21]
  GI50: > 100 µM (inactive)
[22]
  GI50: > 100 µM (inactive)
[23]
  GI50: > 100 µM (inactive)
[24]
  GI50: > 100 µM (inactive)
[25]
  GI50: > 100 µM (inactive)
[26]
  GI50: > 100 µM (inactive)
[27]
  GI50: > 100 µM (inactive)
[28]
  GI50: > 100 µM (inactive)
[29]
  GI50: > 100 µM (inactive)
[30]
  GI50: > 100 µM (inactive)
[31]
  GI50: > 100 µM (inactive)
[32]
  GI50: > 100 µM (inactive)
[33]
  GI50: > 100 µM (inactive)
[34]
  GI50: > 100 µM (inactive)
[35]
  GI50: > 100 µM (inactive)
[36]
  GI50: > 100 µM (inactive)
[37]
  GI50: > 100 µM (inactive)
[38]
  GI50: > 100 µM (inactive)
[39]
  GI50: > 100 µM (inactive)
[40]
  GI50: > 100 µM (inactive)
[41]
  GI50: > 100 µM (inactive)
[42]
  GI50: > 100 µM (inactive)
[43]
  GI50: > 100 µM (inactive)
[44]
  GI50: > 100 µM (inactive)
[45]
  GI50: > 100 µM (inactive)
[46]
  GI50: > 100 µM (inactive)
[47]
  GI50: > 100 µM (inactive)
[48]
  GI50: > 100 µM (inactive)
[49]
  GI50: > 100 µM (inactive)
[50]
  GI50: > 100 µM (inactive)
[51]
  GI50: > 100 µM (inactive)
[52]
  GI50: > 100 µM (inactive)
[53]
  GI50: > 100 µM (inactive)

## Cn1c(-c2ccco2)ccc1-c1ccc(C=O)o1
[1]
  GI50: > 100 µM (inactive)
[2]
  GI50: 92.3 µM (inactive)
[3]
  GI50: > 100 µM (inactive)
[4]
  GI50: 49.7 µM (inactive)
[5]
  GI50: 95.7 µM (inactive)
[6]
  GI50: 13 µM (inactive)
[7]
  GI50: 27.5 µM (inactive)
[8]
  GI50: > 100 µM (inactive)
[9]
  GI50: 52.4 µM (inactive)
[10]
  GI50: 48.8 µM (inactive)
[54]
  GI50: > 100 µM (inactive)
[11]
  GI50: 24.2 µM (inactive)
[12]
  GI50: 72.4 µM
[13]
  GI50: 21.5 µM (inactive)
[14]
  GI50: > 100 µM (inactive)
[15]
  GI50: 31 µM (inactive)
[16]
  GI50: 44.9 µM (inactive)
[18]
  GI50: 38.2 µM (inactive)
[19]
  GI50: 37.5 µM (inactive)
[20]
  GI50: > 100 µM (inactive)
[21]
  GI50: 34.8 µM (inactive)
[22]
  GI50: 35 µM (inactive)
[23]
  GI50: 30.5 µM (inactive)
[24]
  GI50: 79.1 µM (inactive)
[25]
  GI50: 68.1 µM (inactive)
[26]
  GI50: 35.7 µM (inactive)
[27]
  GI50: 23.3 µM (inactive)
[28]
  GI50: > 100 µM (inactive)
[29]
  GI50: > 100 µM (inactive)
[30]
  GI50: 94.6 µM (inactive)
[31]
  GI50: > 100 µM (inactive)
[32]
  GI50: > 100 µM (inactive)
[55]
  GI50: 33 µM (inactive)
[33]
  GI50: 45.6 µM (inactive)
[34]
  GI50: 56.4 µM (inactive)
[35]
  GI50: > 100 µM (inactive)
[36]
  GI50: 37.3 µM (inactive)
[37]
  GI50: > 100 µM (inactive)
[38]
  GI50: 29 µM (inactive)
[39]
  GI50: > 100 µM (inactive)
[41]
  GI50: > 100 µM (inactive)
[42]
  GI50: 21.5 µM (inactive)
[43]
  GI50: 48.6 µM (inactive)
[44]
  GI50: > 100 µM (inactive)
[45]
  GI50: 64.1 µM (inactive)
[46]
  GI50: > 100 µM (inactive)
[47]
  GI50: 77.6 µM (inactive)
[48]
  GI50: > 100 µM (inactive)
[56]
  GI50: > 100 µM (inactive)
[49]
  GI50: 31 µM (inactive)
[50]
  GI50: 33.4 µM (inactive)
[57]
  GI50: 38.1 µM (inactive)
[51]
  GI50: > 100 µM (inactive)
[52]
  GI50: 39.1 µM (inactive)
[53]
  GI50: > 100 µM (inactive)
[58]
  GI50: 60.3 µM (inactive)
[59]
  GI50: 46.7 µM (inactive)
